According to ChEMBL document CHEMBL1201862, “PubChem BioAssay data set” (2004):
Active and inactive are the calls of the source.

Columns and labels:
[1] = molecular target: T1, Kappa-type opioid receptor (Homo sapiens, UniProt P41145); assay: SAR analysis of small molecule antagonists of the kappa opioid receptor via a luminescent beta-arrestin assay - Set 3. [Related pubchem assays (depositor defined):AID1777, AID1778, AID1785, AID1786, AID1966, AID2133, AID2136, AID2285, AID2495]; type: functional
[2] = molecular target: T1, Kappa-type opioid receptor; assay: SAR analysis of Antagonists of the Kappa Opioid Receptor (KOR) using an Image-Based Assay - Set 4. [Related pubchem assays (depositor defined):AID1777, AID1785]; type: functional
Mu-type opioid receptor = Mu-type opioid receptor (Homo sapiens, UniProt P35372); assay: SAR Analysis of Antagonists of the MOR Receptor using an Image-Based Assay - Set 3. [Related pubchem assays (depositor defined):AID1777, AID1785, AID1786, AID1966, AID2133, AID2136, AID2284, AID2285, AID2420]; type: functional
[3] = molecular target: Delta-type opioid receptor (Homo sapiens, UniProt P41143); assay: SAR Analysis of Antagonists of the DOR Receptor using an Image-Based Assay - Set 3. [Related pubchem assays (depositor defined):AID1777, AID1785]; type: functional;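 also: U2OS cells expressing DOR1 and beta-arrestin GFP stimulated with 100 nM SNC80; imaging of GFP-tagged beta-arrestin moving into spots after receptor activation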
[4] = viability loss in THP-1 monocytes – THP-1 cells, cytotoxicity control for Vif-APOBEC3G degradation inhibitor project, dose response (AID 1117359); type: functional; conditions: THP-1
[5] = HEK-293T viability loss after treatment – luminescence, T-cell screen hits, cytotoxicity control for TCR NF-kB inhibitor project, dose response (AID 489026); type: functional, cell-based;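 also: cells exposed to compound about 14 hours before the viability readout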
[6] = molecular target: T2, Sentrin-specific protease 1 (Homo sapiens, UniProt Q9P0U3); assay: Dose response confirmation of small molecule inhibitors of the catalytic domain of the SUMO protease, SENP1 in a FRET assay.; type: functional; conditions: read-out: IC50_Mean
T2 sequence (Q9P0U3 whole entry): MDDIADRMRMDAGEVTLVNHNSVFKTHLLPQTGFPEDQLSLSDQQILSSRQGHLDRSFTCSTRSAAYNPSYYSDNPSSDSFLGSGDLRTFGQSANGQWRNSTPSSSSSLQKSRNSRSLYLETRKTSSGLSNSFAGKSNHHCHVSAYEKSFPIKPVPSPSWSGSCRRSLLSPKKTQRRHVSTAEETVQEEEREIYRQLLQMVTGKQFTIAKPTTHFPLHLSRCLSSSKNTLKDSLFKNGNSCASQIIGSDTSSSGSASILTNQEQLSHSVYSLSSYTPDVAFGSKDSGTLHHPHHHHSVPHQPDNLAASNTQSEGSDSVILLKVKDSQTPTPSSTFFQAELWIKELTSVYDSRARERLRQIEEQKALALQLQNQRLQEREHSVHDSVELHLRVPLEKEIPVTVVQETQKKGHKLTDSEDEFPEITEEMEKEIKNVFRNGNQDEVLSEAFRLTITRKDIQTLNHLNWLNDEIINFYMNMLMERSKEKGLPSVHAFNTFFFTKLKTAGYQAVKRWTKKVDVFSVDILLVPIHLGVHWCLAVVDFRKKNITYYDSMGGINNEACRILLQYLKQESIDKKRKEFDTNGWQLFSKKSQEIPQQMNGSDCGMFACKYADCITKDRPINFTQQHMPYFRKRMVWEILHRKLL

[7] = molecular target: T2, Sentrin-specific protease 1; assay: SENP1 catalytic domain blockers, concentration series – biochemical, kinetic FRET, dose response (AID 651697); type: functional; conditions: read-out: IC50_Mean
[8] = molecular target: Peroxisome proliferator-activated receptor gamma (Homo sapiens, UniProt P37231); assay: PPARg transcriptional activation, reporter cells – cell-based, luminescence, assay provider, dose response (AID 504447); type: functional
[9] = molecular target: Intestinal-type alkaline phosphatase (Mus musculus, UniProt P24822); assay: mouse intestinal alkaline phosphatase activators, dose response, biochemical, luminescence, uHTS hits (AID 488783); type: functional
[10] = molecular target: T3, Alkaline phosphatase, tissue-nonspecific isozyme (Homo sapiens, UniProt P05186); assay: activation of tissue-nonspecific alkaline phosphatase – biochemical, TNAP isozyme, mouse IAP uHTS hits, selectivity assay for mouse IAP activator project, dose response (AID 488880); type: functional
T3 sequence (P05186 whole entry): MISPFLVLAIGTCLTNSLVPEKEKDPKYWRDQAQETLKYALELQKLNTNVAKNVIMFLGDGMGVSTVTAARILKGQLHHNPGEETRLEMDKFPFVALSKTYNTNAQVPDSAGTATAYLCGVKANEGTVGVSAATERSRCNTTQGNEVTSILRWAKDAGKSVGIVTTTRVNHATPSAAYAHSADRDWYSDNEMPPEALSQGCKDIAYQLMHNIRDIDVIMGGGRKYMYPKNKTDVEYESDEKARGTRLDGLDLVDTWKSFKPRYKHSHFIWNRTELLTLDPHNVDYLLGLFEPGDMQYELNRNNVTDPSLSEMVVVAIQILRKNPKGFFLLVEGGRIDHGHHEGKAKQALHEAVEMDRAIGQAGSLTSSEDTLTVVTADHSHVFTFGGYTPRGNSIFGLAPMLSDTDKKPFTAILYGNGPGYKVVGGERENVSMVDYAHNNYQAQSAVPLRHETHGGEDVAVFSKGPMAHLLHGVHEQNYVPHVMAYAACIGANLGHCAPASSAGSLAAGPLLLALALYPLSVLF

[11] = molecular target: Intestinal-type alkaline phosphatase (Homo sapiens, UniProt P09923); assay: activation of human intestinal alkaline phosphatase – biochemical, dose response (AID 488873); type: functional
[12] = molecular target: Peroxisome proliferator-activated receptor gamma/Nuclear receptor coactivator 3 (Homo sapiens, UniProt P37231); assay: TR-FRET dose response biochemical High Throughput Screening assay for agonists of the steroid receptor coactivator 3 (SRC-3) recruitment by the peroxisome proliferator-activated receptor gamma (PPAR gamma): non-selective agonists. [Related pubchem assays: 1301 (Confirmation screen.), 1048 (Primary screen.)]; type: functional
[13] = Luminescence-based dose response cell-based high throughput screening assay for cytotoxic compounds using the IEC-6 intestinal epithelial cell line. [Related pubchem assays: 1858 (Summary AID.), 1825 (Counterscreen.), 1907 (Confirmation screen.)]; type: functional
[14] = reduction of Shn3 3'UTR-driven luciferase in osteoblasts – cell-based, Clone20 osteoblasts, firefly luciferase, cherry-picked, dose response (AID 624132); type: functional;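 also: firefly luciferase luminescence from reporter carrying the Shn3 3'UTR in osteoblasts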
Nonstructural protein 1 = Nonstructural protein 1 (Influenza A virus, UniProt Q194T2); type: functional, Influenza A virus (A/California/07/2009(H1N1))
[15] = loss of viability in HepG2 cells – cell-based, CellTiter-Glo, cherry-picked, cytotoxicity control for Shn3 inhibitor project, dose response (AID 624134); type: functional
[16] = molecular target: Peroxisome proliferator-activated receptor gamma/Nuclear receptor coactivator 2 (Homo sapiens, UniProt P37231); assay: (§1) TR-FRET dose response biochemical High Throughput Screening assay for agonists of the steroid receptor coactivator 2 (SRC-2) recruitment by the peroxisome proliferator-activated receptor gamma (PPAR gamma): non-selective agonists. [Related pubchem assays: 1297, 1032 ]; type: functional
[17] = molecular target: Induced myeloid leukemia cell differentiation protein Mcl-1 (Homo sapiens, UniProt Q07820); type: functional
[18] = molecular target: Eukaryotic translation initiation factor 4E (Mus musculus, UniProt P63073); assay: blockers of eIF4G binding by eIF4E – biochemical, TR-FRET, dose response (AID 855); type: functional;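 also: potency for disrupting eIF4E binding to eIF4GI seen as loss of FRET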
[19] = molecular target: Glucose-6-phosphate 1-dehydrogenase (Homo sapiens, UniProt P11413); assay: inhibition of Homo sapiens G6PD, dose series – biochemical, fluorescence, selectivity assay for P. falciparum G6PD inhibitor project, dose response (AID 504792); type: functional
[20] = molecular target: T4, G-protein coupled receptor 55 (Homo sapiens, UniProt Q9Y2T6); assay: inhibition of LPI-stimulated GPR55 beta-arrestin translocation – imaging, U2OS, beta-arrestin-GFP, LPI agonist, primary screen (AID 2013); type: functional;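 also: antagonist potency measured as reduced agonist-driven arrestin aggregation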
[21] = non-specific 3'UTR reporter inhibition in Clone20-Shn3RL – cell-based, Renilla luciferase, cherry-picked, counter-screen for Shn3 inhibitor project, dose response (AID 624133); type: functional
[22] = molecular target: Peroxisome proliferator-activated receptor gamma/Nuclear receptor coactivator 1 (Homo sapiens, UniProt P37231); assay: as §1, with “1 (SRC-1)” for “2 (SRC-2)”, “assays (depositor defined):AID1300, AID1808, AID504735, AID631]” for “assays: 1297, 1032 ]”; type: protein assay
[23] = molecular target: Heat shock protein HSP 90-alpha (Homo sapiens, UniProt P07900); type: functional, organism-based
[24] = molecular target: T5, G-protein coupled receptor 35 (Homo sapiens, UniProt Q9HC97); assay: SAR analysis of Agonists of the GPR35 Receptor using an Image-Based Assay - Set 4. [Related pubchem assays (depositor defined):AID2013, AID2026]; type: functional
Cannabinoid receptor 2 [25] = molecular target: T6, Cannabinoid receptor 2 (Homo sapiens, UniProt P34972); assay: SAR analysis of antagonists of the Cannabinoid Receptor 2 using an Image-Based Assay - Set 3. [Related pubchem assays (depositor defined):AID2013, AID2026]; type: functional
Cannabinoid receptor 1 [26] = molecular target: T7, Cannabinoid receptor 1 (Homo sapiens, UniProt P21554); assay: SAR analysis of antagonists of the Cannabinoid Receptor 1 using an Image-Based Assay - Set 4. [Related pubchem assays (depositor defined):AID2013, AID2026]; type: functional
[27] = molecular target: T5, G-protein coupled receptor 35; assay: SAR analysis of Antagonists of the GPR35 Receptor using an Image-Based Assay - Set 6. [Related pubchem assays (depositor defined):AID2013, AID2026]; type: functional
[28] = molecular target: T4, G-protein coupled receptor 55; assay: SAR Analysis of Selective Antagonists of GPR55 using an Image-Based Assay - Set 4. [Related pubchem assays (depositor defined):AID2013, AID2026]; type: functional
Cannabinoid receptor 1 [29] = molecular target: T7, Cannabinoid receptor 1; assay: SAR analysis of agonists of the Cannabinoid Receptor 1 using an Image-Based Assay - Set 4. [Related pubchem assays (depositor defined):AID2013, AID2026]; type: functional
Cannabinoid receptor 2 [30] = molecular target: T6, Cannabinoid receptor 2; assay: SAR analysis of agonists of the Cannabinoid Receptor 2 using an Image-Based Assay - Set 3. [Related pubchem assays (depositor defined):AID2013, AID2026]; type: functional
[31] = Counterscreen for AddAB inhibitors: absorbance-based bacterial cell-based high throughput dose response assay for inhibitors of bacterial viability. [Related pubchem assays (depositor defined):AID435030, AID449728, AID449731, AID488942, AID488955, AID488956]; type: functional
INS1 = assay: INS-1E survival protection against cytokine death – cell-based, luminescence, retest, dose response (AID 449756); type: functional; conditions: Rattus norvegicus, INS1;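 also: cell death triggered by IL-1 beta plus TNF-alpha plus IFN-gamma mixture; protective hits raise ATP signal compared with cytokine alone wells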
Exodeoxyribonuclease V = Exodeoxyribonuclease V (Escherichia coli (strain K12), UniProt P04993+P07648+P08394); assay: RecBCD inhibition via phage-restricted bacterial growth – absorbance, V66 E. coli, mutant T4 phage, counter-screen for AddAB inhibitor project, dose response (AID 492957); type: functional, cell-based, Escherichia coli str. K-12 substr. MG1655
T-cell = assay: loss of vesicle association with mouse CD8+ T cells – mouse 2C CD8+ T cells, flow cytometry, dose response (AID 485284); type: functional

T7 sequence (P21554 whole entry): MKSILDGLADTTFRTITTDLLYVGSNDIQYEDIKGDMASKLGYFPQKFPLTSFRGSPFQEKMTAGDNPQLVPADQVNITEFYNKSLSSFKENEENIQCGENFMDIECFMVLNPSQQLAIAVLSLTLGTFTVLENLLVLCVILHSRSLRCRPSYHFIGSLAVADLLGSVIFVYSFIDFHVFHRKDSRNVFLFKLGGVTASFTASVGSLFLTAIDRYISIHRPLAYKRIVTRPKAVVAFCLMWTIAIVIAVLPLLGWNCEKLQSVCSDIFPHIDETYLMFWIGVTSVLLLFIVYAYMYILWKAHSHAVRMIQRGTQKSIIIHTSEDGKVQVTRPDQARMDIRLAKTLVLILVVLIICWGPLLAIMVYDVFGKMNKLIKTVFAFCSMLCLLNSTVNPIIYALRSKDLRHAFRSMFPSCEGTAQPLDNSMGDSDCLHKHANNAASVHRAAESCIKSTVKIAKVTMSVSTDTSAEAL
T5 sequence (Q9HC97 whole entry): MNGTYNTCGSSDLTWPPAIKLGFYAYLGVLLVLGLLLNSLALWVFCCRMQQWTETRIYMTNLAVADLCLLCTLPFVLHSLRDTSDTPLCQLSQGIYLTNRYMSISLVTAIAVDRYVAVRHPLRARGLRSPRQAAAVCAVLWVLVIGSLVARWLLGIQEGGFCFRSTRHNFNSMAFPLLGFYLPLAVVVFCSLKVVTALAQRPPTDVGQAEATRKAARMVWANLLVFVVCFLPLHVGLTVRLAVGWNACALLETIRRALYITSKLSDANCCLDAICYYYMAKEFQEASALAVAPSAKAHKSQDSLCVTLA
T6 sequence (P34972 whole entry): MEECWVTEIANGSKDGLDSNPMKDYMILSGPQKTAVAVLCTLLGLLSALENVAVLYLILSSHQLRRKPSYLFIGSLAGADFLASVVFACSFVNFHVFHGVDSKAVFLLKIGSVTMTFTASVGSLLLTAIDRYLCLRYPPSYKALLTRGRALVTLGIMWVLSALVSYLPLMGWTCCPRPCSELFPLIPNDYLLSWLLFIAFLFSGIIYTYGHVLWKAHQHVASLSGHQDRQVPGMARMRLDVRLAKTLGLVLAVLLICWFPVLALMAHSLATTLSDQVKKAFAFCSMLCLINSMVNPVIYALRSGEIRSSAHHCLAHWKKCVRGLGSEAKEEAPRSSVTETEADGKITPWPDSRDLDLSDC
T1 sequence (P41145 whole entry): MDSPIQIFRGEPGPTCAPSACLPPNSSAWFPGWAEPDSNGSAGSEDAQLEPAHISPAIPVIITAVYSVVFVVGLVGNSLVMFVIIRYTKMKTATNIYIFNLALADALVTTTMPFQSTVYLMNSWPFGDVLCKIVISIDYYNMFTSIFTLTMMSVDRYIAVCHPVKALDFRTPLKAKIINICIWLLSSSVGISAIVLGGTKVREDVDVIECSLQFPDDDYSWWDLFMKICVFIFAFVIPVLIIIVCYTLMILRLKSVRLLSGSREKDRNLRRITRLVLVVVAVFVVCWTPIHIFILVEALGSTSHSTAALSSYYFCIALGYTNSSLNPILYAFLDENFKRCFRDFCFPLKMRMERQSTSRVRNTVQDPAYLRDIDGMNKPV
T4 sequence (Q9Y2T6 whole entry): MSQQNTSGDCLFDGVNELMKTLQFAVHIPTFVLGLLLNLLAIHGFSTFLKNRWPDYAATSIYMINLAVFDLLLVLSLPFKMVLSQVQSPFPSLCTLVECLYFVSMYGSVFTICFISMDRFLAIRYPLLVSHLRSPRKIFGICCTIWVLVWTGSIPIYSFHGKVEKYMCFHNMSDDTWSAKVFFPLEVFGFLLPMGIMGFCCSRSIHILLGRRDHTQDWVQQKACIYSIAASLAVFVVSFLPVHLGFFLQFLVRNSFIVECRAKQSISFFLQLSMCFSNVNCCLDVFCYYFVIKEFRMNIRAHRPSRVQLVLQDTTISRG
Nonstructural protein 1, sequence (Q194T2 whole entry): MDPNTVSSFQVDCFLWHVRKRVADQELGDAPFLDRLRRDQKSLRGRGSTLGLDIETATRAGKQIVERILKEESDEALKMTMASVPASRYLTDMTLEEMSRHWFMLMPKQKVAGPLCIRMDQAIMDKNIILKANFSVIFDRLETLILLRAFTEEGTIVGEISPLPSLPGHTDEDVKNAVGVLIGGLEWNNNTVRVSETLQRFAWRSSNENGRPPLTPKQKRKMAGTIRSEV
Exodeoxyribonuclease V, sequence (P04993 whole entry): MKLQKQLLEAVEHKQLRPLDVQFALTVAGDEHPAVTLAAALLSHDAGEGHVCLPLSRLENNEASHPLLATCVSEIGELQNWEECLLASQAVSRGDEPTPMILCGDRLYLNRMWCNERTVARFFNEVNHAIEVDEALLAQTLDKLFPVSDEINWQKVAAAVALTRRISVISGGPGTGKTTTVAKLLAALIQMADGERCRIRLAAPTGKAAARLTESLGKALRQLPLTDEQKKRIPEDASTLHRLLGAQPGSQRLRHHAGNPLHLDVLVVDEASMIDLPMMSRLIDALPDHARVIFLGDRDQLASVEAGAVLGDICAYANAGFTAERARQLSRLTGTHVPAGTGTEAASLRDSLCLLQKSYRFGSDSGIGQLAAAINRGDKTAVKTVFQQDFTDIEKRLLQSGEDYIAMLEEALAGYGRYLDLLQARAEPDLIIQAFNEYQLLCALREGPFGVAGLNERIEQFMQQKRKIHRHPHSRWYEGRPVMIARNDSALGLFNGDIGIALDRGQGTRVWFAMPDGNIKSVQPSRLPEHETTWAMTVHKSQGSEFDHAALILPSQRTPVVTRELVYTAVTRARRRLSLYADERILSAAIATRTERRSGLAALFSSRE
Exodeoxyribonuclease V, sequence (P07648 whole entry): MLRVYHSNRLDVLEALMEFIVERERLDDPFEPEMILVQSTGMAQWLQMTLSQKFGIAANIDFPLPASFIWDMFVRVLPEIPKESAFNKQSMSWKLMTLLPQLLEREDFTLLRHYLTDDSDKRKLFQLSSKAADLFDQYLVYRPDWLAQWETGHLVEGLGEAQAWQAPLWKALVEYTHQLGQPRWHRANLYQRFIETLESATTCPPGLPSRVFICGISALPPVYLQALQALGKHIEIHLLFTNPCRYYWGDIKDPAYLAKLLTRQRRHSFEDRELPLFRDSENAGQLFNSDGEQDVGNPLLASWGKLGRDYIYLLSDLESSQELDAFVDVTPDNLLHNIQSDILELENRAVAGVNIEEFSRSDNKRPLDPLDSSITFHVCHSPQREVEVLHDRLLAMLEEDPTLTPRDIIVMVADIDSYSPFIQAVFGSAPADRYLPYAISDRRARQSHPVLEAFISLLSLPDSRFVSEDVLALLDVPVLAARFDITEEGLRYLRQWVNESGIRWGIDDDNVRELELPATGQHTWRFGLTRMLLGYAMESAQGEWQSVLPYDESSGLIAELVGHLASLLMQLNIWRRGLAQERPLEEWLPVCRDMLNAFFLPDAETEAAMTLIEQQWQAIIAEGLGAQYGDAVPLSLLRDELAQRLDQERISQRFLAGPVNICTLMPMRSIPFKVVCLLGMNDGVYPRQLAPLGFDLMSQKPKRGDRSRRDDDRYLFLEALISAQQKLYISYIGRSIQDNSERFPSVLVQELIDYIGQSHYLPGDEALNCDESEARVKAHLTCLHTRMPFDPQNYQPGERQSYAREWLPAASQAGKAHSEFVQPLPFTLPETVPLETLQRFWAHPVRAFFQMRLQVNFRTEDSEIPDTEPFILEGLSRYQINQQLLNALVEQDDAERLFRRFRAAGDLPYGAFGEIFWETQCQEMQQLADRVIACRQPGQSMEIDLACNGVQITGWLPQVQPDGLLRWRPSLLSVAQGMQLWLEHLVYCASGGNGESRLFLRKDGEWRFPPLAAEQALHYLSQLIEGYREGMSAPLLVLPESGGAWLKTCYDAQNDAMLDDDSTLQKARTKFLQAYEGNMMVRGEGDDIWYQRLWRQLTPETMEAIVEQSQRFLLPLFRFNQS
Exodeoxyribonuclease V, sequence (P08394 whole entry): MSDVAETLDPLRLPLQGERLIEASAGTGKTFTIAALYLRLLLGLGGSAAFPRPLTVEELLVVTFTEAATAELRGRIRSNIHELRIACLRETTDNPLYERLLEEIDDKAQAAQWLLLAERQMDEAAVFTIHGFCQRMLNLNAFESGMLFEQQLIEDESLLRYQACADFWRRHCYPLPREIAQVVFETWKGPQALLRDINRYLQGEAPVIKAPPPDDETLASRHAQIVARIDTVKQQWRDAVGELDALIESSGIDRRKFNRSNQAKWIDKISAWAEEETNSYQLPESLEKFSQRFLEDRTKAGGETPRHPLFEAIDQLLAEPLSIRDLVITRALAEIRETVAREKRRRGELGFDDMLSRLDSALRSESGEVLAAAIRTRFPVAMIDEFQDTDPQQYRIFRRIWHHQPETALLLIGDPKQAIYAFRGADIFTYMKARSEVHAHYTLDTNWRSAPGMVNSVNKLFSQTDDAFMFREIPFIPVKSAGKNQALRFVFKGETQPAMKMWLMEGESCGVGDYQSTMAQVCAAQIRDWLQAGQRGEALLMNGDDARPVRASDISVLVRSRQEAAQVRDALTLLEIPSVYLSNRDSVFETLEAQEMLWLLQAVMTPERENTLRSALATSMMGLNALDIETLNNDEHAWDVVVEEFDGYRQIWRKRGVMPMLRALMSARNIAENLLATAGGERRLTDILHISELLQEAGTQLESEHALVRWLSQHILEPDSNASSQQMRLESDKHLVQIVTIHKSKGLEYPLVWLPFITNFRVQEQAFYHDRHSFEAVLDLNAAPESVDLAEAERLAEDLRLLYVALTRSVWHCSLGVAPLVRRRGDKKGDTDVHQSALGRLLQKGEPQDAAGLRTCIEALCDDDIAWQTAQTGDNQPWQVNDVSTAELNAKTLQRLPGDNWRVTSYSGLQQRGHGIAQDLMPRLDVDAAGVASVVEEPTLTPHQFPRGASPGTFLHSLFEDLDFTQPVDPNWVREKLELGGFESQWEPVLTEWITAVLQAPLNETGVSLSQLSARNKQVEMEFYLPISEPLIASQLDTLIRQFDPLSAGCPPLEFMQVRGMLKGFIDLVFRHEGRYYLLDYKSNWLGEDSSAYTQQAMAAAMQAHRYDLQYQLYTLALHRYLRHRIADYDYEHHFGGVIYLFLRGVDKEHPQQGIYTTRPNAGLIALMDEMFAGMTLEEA

## O=C(NCCN(Cc1ccccc1)Cc1ccccc1)c1ccc(CNS(=O)(=O)c2ccccc2)cc1
[1]
  IC50: > 20 µM (inactive)
[2]
  IC50: > 32 µM (inactive)
Mu-type opioid receptor
  IC50: > 32 µM (inactive)
[3]
  IC50: > 32 µM (inactive)

## CC1CC(C)CN(S(=O)(=O)c2ccc(NC(=O)c3ccc(O)nc3)cc2)C1 (configuration not stated)
[4]
  CC50: 19.7 µM (active)
[5]
  IC50: > 80 µM (inactive)

## COc1ccccc1-n1cc(C(=O)c2cc(Cl)ccc2O)cc(C#N)c1=O
[6]
  IC50: 25.5 µM (inactive)
[7]
  IC50: 40.9 µM (inactive)
[8]
  EC50: 2.4 µM (active)

## Cc1ccc(NC(=O)CN(C)S(=O)(=O)c2ccc3[nH]c(=O)oc3c2)c(C)c1
[9]
  EC50: 57.9 µM (active)
[10]
  EC50: 73.1 µM (active)
[11]
  EC50: 61.3 µM (active)

## CN(C)c1ccc(/C=C/c2ccc3c4ccccc4ccc3[n+]2-c2ccccc2)cc1
[12]
  EC50: 85.7 µM (not active)
[13]
  IC50: 2.41 µM (active)
[14]
  AC50: < 0.26 µM (active)
Nonstructural protein 1
  IC50: 2.36 µM (active)
[15]
  AC50: 2.21 µM (active)
[16]
  EC50: 17 µM (not active)
[17]
  IC50: 4.64 µM (not active)
[18]
  IC50: 50 µM (inactive)
[19]
  IC50: > 80 µM (inactive)
[20]
  IC50: 0.699 µM (active)
[21]
  AC50: 4.32 µM (active)
[22]
  EC50: 19.2 µM (inactive)
[23]
  AC50: 3.19 µM (active)

## COc1ccc(-c2c(-c3ccc(OCCN4CCOCC4)cc3O)n[nH]c2C)cc1
[24]
  EC50: > 32 µM (inactive)
Cannabinoid receptor 2 [25]
  IC50: 26.8 µM (inactive)
Cannabinoid receptor 1 [26]
  IC50: 3.78 µM (active)
[27]
  IC50: > 32 µM (inactive)
[28]
  IC50: > 32 µM (inactive)
Cannabinoid receptor 1 [29]
  EC50: > 32 µM (inactive)
Cannabinoid receptor 2 [30]
  EC50: > 32 µM (inactive)

## Nc1c(Cl)ncnc1N/N=C/c1ccc2ccccc2n1
Nonstructural protein 1
  IC50: 8.42 µM (active)
[31]
  IC50: > 119 µM (inactive)
INS1
  AC50: 0.825 µM (active)
Exodeoxyribonuclease V
  IC50: > 119 µM (inactive)

## O=C(OCCOc1cccc(Cl)c1)c1ccc(F)c(S(=O)(=O)N2CCOCC2)c1
T-cell
  EC50: 12.4 µM (active)
